In ChEMBL document CHEMBL1145863, “Design and synthesis of dihydrofolate reductase inhibitors encompassing a bridging ester group. Evaluation in a mouse colitis model” (J Med Chem, 2003):

Biological target: T1, Dihydrofolate reductase (Rattus norvegicus, UniProt Q920D2)
T1 sequence (Q920D2 whole entry): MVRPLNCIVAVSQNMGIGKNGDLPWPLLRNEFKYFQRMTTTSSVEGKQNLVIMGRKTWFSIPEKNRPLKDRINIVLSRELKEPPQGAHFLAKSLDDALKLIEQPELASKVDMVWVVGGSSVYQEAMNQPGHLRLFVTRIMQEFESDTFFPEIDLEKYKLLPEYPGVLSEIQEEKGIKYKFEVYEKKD
Assay: Inhibition of rat liver Dihydrofolate reductase (rlDHFR)

IC50	Compound
150 nM	Nc1nc(N)c2cc(COC(=O)c3ccc(C(=O)N[C@H](CCC(=O)O)C(=O)O)cc3)ccc2n1
160 nM	Nc1nc(N)c2cc(COC(=O)c3ccc(C(=O)N[C@@H](CCCC(=O)O)C(=O)O)cc3)ccc2n1
